{"source": "patent US7014863B2", "about": "“Additive for an animal feed” (priority 1999, dated 2006)", "key": {"Clostridium perfringens [1]": {"system": "Clostridium perfringens", "details": "general common knowledge in the art; cited from earlier work"}, "Clostridium perfringens [2]": {"system": "Clostridium perfringens", "format": "in vivo, chickens", "details": "inferred from FIG. 3 and common knowledge"}}, "data": [{"compound": "C[N+](C)(C)CC(=O)O", "note": "[betaine]", "values": [{"measurement": "effectiveness against a C. perfringens challenge", "setting": "Clostridium perfringens [1]", "value": "not effective"}, {"measurement": "effectiveness against an infection of C. perfringens", "setting": "Clostridium perfringens [2]", "value": "does not result in the Clostridium infection being effectively treated"}]}]}
